The text below walks through data of US20230278972A1, “SUBSTITUTED HALOALKYL SULFONANILIDE HERBICIDES” (FMC Corporation, priority 2020, published 2023).

Common to all, as to assay type: in vivo
Assay [1] concerns Oat, Wild (wild oat, Avena fatua). The assay can be described thus: Test A1 preemergence, Oat, Wild. The procedure, abridged: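 Both timings started from seed in a loam-sand blend. Preemergence pots got a directed soil application immediately; postemergence pots were sprayed when seedlings had one or two leaves and stood 2–10 cm. Each compound was prepared in a non-phytotoxic solvent plus surfactant.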

In assay [2] the test system is wheat (Triticum aestivum). The assay can be described thus: Test A1 postemergence, wheat. To be noted: Postemergence. A digest of the protocol: (§1)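 Pre: seeds in loam/sand blend, directed soil spray. Post: potted plants, same soil, 2–10 cm, 1–2 leaf stage. Chemicals in non-phytotoxic solvent + surfactant for both.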
Assay [3] concerns Ryegrass, Italian (Italian ryegrass, Lolium multiflorum). The assay can be described thus: Test A1 postemergence, Ryegrass, Italian. To be noted: Postemergence. The procedure, abridged:
as §1

Assay [4] has as its system Oat, Wild (wild oat, Avena fatua). Description: Test A1 postemergence, Oat, Wild. To be noted: Postemergence. The procedure, abridged: as §1
The subject of assay [5] is goosegrass (Eleusine indica). The assay can be described thus: Test A1 postemergence, goosegrass. To be noted: Postemergence. The procedure, abridged:
as §1

Assay [6] relates to barnyardgrass (Echinochloa crus-galli). The assay can be described thus: Test B1 flooded paddy test, barnyardgrass. To be noted: 250 g ai/ha, Flood, applied to paddy water, 2-leaf stage, visually evaluated after 10 to 14 days. From the text:
A dash (-) response means no test result.

The test system of assay [7] is blackgrass (Alopecurus myosuroides). The assay can be described thus: Test A1 postemergence, blackgrass. The settings on record: Postemergence, 0 to 100 scale (0 no effect, 100 complete control). A digest of the protocol: as §1
Assay [8] has as its system kochia (Bassia scoparia). The assay can be described thus: Test A1 postemergence, kochia. The settings on record: Postemergence. The procedure, abridged: as §1
Setting [9] is: 31 g ai/ha, 0 to 100 scale (0 no effect, 100 complete control).
The mark [10] stands for this setting: 125 g ai/ha, 0 to 100 scale, 0 no effect, 100 complete control.
Where [11] appears, read: 31 g ai/ha, 0 to 100 scale (0 no effect, 100 complete control), 10 days.

SMILES strings stand for the structures.

Consider `Cc1cc(C)c(N(COC(=O)C(C)(C)C)S(=O)(=O)C(F)(F)F)cc1C1=NOC2CCCCCC12` (single isomer, unassigned) [Compound 294], for which the “Plant response rating, Oat, Wild” value in assay [1] (setting [9]) was 0; in assay [1] (setting [10]), 20; in assay [4] (setting [11]) it was 10; in assay [4] (125 g ai/ha, 0 to 100 scale), 20. For the same compound, the “Plant response rating, Wheat” value in assay [2] (setting [11]) is 0; in assay [2] (125 g ai/ha, 0 to 100 scale), 20. For the same compound, the “Plant response rating, Ryegrass, Italian” value in assay [3] (setting [11]) was found to be 0; in assay [3] (125 g ai/ha, 0 to 100 scale), 40. Also, the “Plant response rating, Goosegrass” value is 0 in assay [5] (setting [11]) and 30 in assay [5] (125 g ai/ha, 0 to 100 scale). For the same compound, in assay [6], the “Plant response rating, Barnyardgrass (0 to 100 scale, 0 is no effect, 100 is complete control)” value came out at 95. Moreover, the “Plant response rating, Blackgrass” value in assay [7] (31 g ai/ha, 10 days) was found to be 0; in assay [7] (125 g ai/ha), 0. Also, the “Plant response rating, Kochia” value in assay [8] (setting [11]) was determined as 0; in assay [8] (125 g ai/ha, 0 to 100 scale), 20.
Consider `Cc1cc(C)c(-n2nccc(C)c2=O)cc1NS(=O)(=O)C(F)(F)F` [Compound 281], for which the “Plant response rating, Oat, Wild” value in assay [1] (setting [9]) is 50; in assay [1] (setting [10]), 0; in assay [4] (setting [11]) it was 0; in assay [4] (125 g ai/ha, 0 to 100 scale) it was 0. The “Plant response rating, Wheat” value in assay [2] (setting [11]) is recorded as 0; in assay [2] (125 g ai/ha, 0 to 100 scale), 20. For the same compound, the “Plant response rating, Ryegrass, Italian” value came to 0 in assay [3] (setting [11]) and 0 in assay [3] (125 g ai/ha, 0 to 100 scale). Besides, the “Plant response rating, Goosegrass” value in assay [5] (setting [11]) was found to be 0; in assay [5] (125 g ai/ha, 0 to 100 scale), 40. Moreover, the “Plant response rating, Barnyardgrass (0 to 100 scale, 0 is no effect, 100 is complete control)” value in assay [6] is on record as 0. Besides, the “Plant response rating, Blackgrass” value in assay [7] (31 g ai/ha, 10 days) is 0; in assay [7] (125 g ai/ha), 0. The “Plant response rating, Kochia” value in assay [8] (setting [11]) is recorded as 0; in assay [8] (125 g ai/ha, 0 to 100 scale), 10.
As to `Cc1c(NS(=O)(=O)C(F)(F)F)cc(C(=O)N(C)C)c(C)c1Cl` [Compound 287], the “Plant response rating, Oat, Wild” value is 0 in assay [1] (setting [9]); 10 in assay [1] (setting [10]); 0 in assay [4] (setting [11]); 0 in assay [4] (125 g ai/ha, 0 to 100 scale). For the same compound, the “Plant response rating, Wheat” value came to 0 in assay [2] (setting [11]) and 10 in assay [2] (125 g ai/ha, 0 to 100 scale). The “Plant response rating, Ryegrass, Italian” value was 0 in assay [3] (setting [11]) and 60 in assay [3] (125 g ai/ha, 0 to 100 scale). For the same compound, the “Plant response rating, Goosegrass” value in assay [5] (setting [11]) is reported as 0; in assay [5] (125 g ai/ha, 0 to 100 scale) it was 60. In assay [6], the “Plant response rating, Barnyardgrass (0 to 100 scale, 0 is no effect, 100 is complete control)” value turned out to be 0. The “Plant response rating, Blackgrass” value worked out at 0 in assay [7] (31 g ai/ha, 10 days) and 0 in assay [7] (125 g ai/ha). The “Plant response rating, Kochia” value is on record as 0 in assay [8] (setting [11]) and 10 in assay [8] (125 g ai/ha, 0 to 100 scale).
For `Cc1c(NS(=O)(=O)C(F)(F)F)cc(C(=O)N(C)C)c(C)c1C` [Compound 288], the “Plant response rating, Oat, Wild” value in assay [1] (setting [9]) was found to be 0; in assay [1] (setting [10]), 0; in assay [4] (setting [11]), 0; in assay [4] (125 g ai/ha, 0 to 100 scale) it was 0. Besides, the “Plant response rating, Wheat” value in assay [2] (setting [11]) is recorded as 0; in assay [2] (125 g ai/ha, 0 to 100 scale) it was 10. The “Plant response rating, Ryegrass, Italian” value in assay [3] (setting [11]) is 0; in assay [3] (125 g ai/ha, 0 to 100 scale), 0. The “Plant response rating, Goosegrass” value in assay [5] (setting [11]) is 0; in assay [5] (125 g ai/ha, 0 to 100 scale) it was 70. Further, in assay [6], the “Plant response rating, Barnyardgrass (0 to 100 scale, 0 is no effect, 100 is complete control)” value came to 0. The “Plant response rating, Blackgrass” value in assay [7] (31 g ai/ha, 10 days) turned out to be 0; in assay [7] (125 g ai/ha), 0. The “Plant response rating, Kochia” value amounted to 0 in assay [8] (setting [11]) and 10 in assay [8] (125 g ai/ha, 0 to 100 scale).
Regarding `COc1cc(C)c(C2=NOC3(CCCC3)C2)cc1NS(=O)(=O)C(F)(F)F` [Compound 304], the “Plant response rating, Oat, Wild” value in assay [1] (setting [9]) came to 50; in assay [1] (setting [10]), 0; in assay [4] (setting [11]), 0; in assay [4] (125 g ai/ha, 0 to 100 scale) it was 0. For the same compound, the “Plant response rating, Wheat” value in assay [2] (setting [11]) was 0; in assay [2] (125 g ai/ha, 0 to 100 scale), 20. Further, the “Plant response rating, Ryegrass, Italian” value in assay [3] (setting [11]) was 0; in assay [3] (125 g ai/ha, 0 to 100 scale) it was 0. Further, the “Plant response rating, Goosegrass” value in assay [5] (setting [11]) was found to be 0; in assay [5] (125 g ai/ha, 0 to 100 scale), 0. Further, the “Plant response rating, Barnyardgrass (0 to 100 scale, 0 is no effect, 100 is complete control)” value in assay [6] is recorded as 0. In addition, the “Plant response rating, Kochia” value in assay [8] (setting [11]) worked out at 0; in assay [8] (125 g ai/ha, 0 to 100 scale), 20.
